For the test, the target named is T1, LFA-1 binding to immobilized ICAM-1 (Homo sapiens, UniProt P05107+P20701).
T1 construct: made in house; host or cells: transfected 293 cells (LFA-1)
T1 sequence (P20701 26-1170): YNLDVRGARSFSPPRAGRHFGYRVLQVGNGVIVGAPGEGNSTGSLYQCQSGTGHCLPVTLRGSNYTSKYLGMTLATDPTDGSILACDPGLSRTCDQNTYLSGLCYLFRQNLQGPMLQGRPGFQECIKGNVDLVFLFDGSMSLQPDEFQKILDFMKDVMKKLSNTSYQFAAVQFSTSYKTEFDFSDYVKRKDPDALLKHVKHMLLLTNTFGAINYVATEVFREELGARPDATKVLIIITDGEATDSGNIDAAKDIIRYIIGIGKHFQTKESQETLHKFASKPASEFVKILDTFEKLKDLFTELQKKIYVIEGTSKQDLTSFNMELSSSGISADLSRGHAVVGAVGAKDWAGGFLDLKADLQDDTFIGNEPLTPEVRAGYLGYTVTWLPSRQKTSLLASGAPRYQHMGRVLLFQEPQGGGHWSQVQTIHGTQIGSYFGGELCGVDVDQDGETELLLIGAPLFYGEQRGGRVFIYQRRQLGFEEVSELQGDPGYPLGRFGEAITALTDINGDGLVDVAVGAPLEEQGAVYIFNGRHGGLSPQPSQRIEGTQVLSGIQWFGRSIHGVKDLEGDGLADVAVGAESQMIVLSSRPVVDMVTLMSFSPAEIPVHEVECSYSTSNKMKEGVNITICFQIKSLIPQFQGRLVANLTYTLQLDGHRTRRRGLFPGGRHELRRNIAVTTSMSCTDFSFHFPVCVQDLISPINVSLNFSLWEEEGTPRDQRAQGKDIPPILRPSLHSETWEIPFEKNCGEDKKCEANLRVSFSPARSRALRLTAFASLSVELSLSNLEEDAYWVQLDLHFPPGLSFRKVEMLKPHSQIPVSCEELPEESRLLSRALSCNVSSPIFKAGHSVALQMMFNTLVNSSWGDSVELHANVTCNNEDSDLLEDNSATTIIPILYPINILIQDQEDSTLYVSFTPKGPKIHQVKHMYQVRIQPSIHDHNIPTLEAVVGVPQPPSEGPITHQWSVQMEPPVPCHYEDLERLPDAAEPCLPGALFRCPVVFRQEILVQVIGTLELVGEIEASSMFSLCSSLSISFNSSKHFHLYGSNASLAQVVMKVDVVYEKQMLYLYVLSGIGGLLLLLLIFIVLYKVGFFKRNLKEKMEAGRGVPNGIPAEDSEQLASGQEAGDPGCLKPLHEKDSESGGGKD
T1 sequence (P05107 23-769): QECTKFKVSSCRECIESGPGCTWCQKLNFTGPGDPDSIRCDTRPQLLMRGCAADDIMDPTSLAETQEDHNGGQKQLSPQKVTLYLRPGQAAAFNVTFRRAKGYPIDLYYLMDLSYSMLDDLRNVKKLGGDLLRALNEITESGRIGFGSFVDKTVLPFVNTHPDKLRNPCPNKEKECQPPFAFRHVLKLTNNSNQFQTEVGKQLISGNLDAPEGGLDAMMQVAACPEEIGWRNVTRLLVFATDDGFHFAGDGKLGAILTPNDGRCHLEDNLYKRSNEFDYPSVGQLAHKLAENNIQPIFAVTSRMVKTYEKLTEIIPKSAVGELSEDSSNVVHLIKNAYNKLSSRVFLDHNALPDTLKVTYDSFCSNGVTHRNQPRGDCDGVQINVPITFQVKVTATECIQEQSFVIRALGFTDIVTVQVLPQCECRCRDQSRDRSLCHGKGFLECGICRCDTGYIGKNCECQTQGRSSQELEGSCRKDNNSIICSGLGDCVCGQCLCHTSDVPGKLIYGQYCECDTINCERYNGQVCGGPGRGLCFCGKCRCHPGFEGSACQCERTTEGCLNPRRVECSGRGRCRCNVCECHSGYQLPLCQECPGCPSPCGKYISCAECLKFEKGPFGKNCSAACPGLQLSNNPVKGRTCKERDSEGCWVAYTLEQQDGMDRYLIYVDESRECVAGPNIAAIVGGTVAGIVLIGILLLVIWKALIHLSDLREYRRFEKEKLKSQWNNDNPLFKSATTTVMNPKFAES
Put plainly: LFA-1/ICAM-1 protein-protein assay (solid-phase ELISA). The note with it: read-out: LFA-1/ICAM-1 Protein-Protein Assay IC50. The gist of the method:
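Human 5dICAM-Ig (ICAM-1 extracellular domain–IgG Fc) coated on plates; membrane-bound LFA-1 from transfected 293 cells (280 ng/mL) added with compound in Mn2+-containing HEPES buffer pH 7.2, 2 h at 37° C. Bound LFA-1 detected via anti-β2 antibody and HRP/TMB at 450 nm; IC50s determined.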
Background: In an ELISA, binding on a coated surface is turned into a signal by an enzyme label.
Turning to `COc1cccc(C(=O)NC[C@H](NC(=O)c2ccc(C(=O)NCc3cccc(O)c3)cc2Cl)C(=O)O)c1` [Example 76, N-[2-chloro-4-[[[(3-hydroxyphenyl)methyl]amino]-carbonyl]benzoyl]-3-(3-methoxybenzoylamino)-L-alanine], the IC50 is 1.2 nM.

With `O=C1CC[C@@H](C(=O)NC[C@H](NC(=O)c2ccc(C(=O)NCc3cccc(O)c3)cc2Cl)C(=O)O)O1` [Example 96], the IC50 was 3.1 nM.

As to `O=C(NCc1cccc(O)c1)c1ccc(C(=O)N[C@@H](CNC(=O)C2CC2)C(=O)O)c(Cl)c1` [Example 97], the IC50 was 1.9 nM.

As for `O=C(NCc1cccc(O)c1)c1ccc(C(=O)N[C@@H](CNC(=O)C2(c3ccccc3)CC2)C(=O)O)c(Cl)c1` [Example 99], the IC50 is 7.5 nM.

In the case of `O=C(NCc1cccc(O)c1)c1ccc(C(=O)N[C@@H](CNC(=O)C2CCC2)C(=O)O)c(Cl)c1` [Example 100], the IC50 is 2.9 nM.

For `O=C(NCc1cccc(O)c1)c1ccc(C(=O)N[C@@H](CNC(=O)C2CCCC2)C(=O)O)c(Cl)c1` [Example 101], the IC50 was 1.9 nM.

In the case of `COCCC1(C(=O)NC[C@H](NC(=O)c2ccc(C(=O)NCc3cccc(O)c3)cc2Cl)C(=O)O)CCCC1` [Example 102], the IC50 was 2.2 nM.

For the compound `O=C(NCc1cccc(O)c1)c1ccc(C(=O)N[C@@H](CNC(=O)C2(c3ccccc3)CCCC2)C(=O)O)c(Cl)c1` [Example 103], the IC50 was determined as 1.6 nM.

Consider `O=C(NCc1cccc(O)c1)c1ccc(C(=O)N[C@@H](CNC(=O)C2CCCCC2)C(=O)O)c(Cl)c1` [Example 104], for which the IC50 came to 3.5 nM.

For the compound `CC1(C(=O)NC[C@H](NC(=O)c2ccc(C(=O)NCc3cccc(O)c3)cc2Cl)C(=O)O)CCCCC1` [Example 105], the IC50 was found to be 1.9 nM.

Turning to `O=C(NCc1cccc(O)c1)c1ccc(C(=O)N[C@@H](CNC(=O)[C@H](CC2CCCCC2)n2cccc2)C(=O)O)c(Cl)c1` [Example 110], the IC50 was 3.7 nM.

Consider `Cc1noc(C)c1CCC(=O)NC[C@H](NC(=O)c1ccc(C(=O)NCc2cccc(O)c2)cc1Cl)C(=O)O` [Example 111], for which the IC50 is 2 nM.

In the case of `O=C(CCN1CCCCC1)NC[C@H](NC(=O)c1ccc(C(=O)NCc2cccc(O)c2)cc1Cl)C(=O)O` [Example 112], the IC50 was 1.5 nM.

In the case of `C/C=C/C(=O)NC[C@H](NC(=O)c1ccc(C(=O)NCc2cccc(O)c2)cc1Cl)C(=O)O` [Example 113], the IC50 was found to be 1.7 nM.

For `COc1ccc(/C=C/C(=O)NC[C@H](NC(=O)c2ccc(C(=O)NCc3cccc(O)c3)cc2Cl)C(=O)O)cc1` [Example 114], the IC50 came out at 1.8 nM.

For `O=C(/C=C/c1cccnc1)NC[C@H](NC(=O)c1ccc(C(=O)NCc2cccc(O)c2)cc1Cl)C(=O)O` [Example 115], the IC50 was 2.2 nM.

Take `O=C(/C=C/c1cccs1)NC[C@H](NC(=O)c1ccc(C(=O)NCc2cccc(O)c2)cc1Cl)C(=O)O` [Example 116]: the IC50 is 1.8 nM.

In the case of `CC(=O)Oc1ccccc1C(=O)NC[C@H](NC(=O)c1ccc(C(=O)NCc2cccc(O)c2)cc1Cl)C(=O)O` [Example 117], the IC50 is 3.6 nM.

As for `Nc1cccc(C(=O)NC[C@H](NC(=O)c2ccc(C(=O)NCc3cccc(O)c3)cc2Cl)C(=O)O)c1` [Example 118], the IC50 is 1.9 nM.

With `NS(=O)(=O)c1ccc(C(=O)NC[C@H](NC(=O)c2ccc(C(=O)NCc3cccc(O)c3)cc2Cl)C(=O)O)cc1` [Example 119], the IC50 came out at 3 nM.

As to `O=C(NCc1cccc(O)c1)c1ccc(C(=O)N[C@@H](CNC(=O)c2ccccc2Br)C(=O)O)c(Cl)c1` [Example 120], the IC50 worked out at 4.9 nM.

Consider `O=C(NCc1cccc(O)c1)c1ccc(C(=O)N[C@@H](CNC(=O)c2cccc(Br)c2)C(=O)O)c(Cl)c1` [Example 121], for which the IC50 came to 1.6 nM.

Regarding `O=C(NCc1cccc(O)c1)c1ccc(C(=O)N[C@@H](CNC(=O)c2ccccc2Cl)C(=O)O)c(Cl)c1` [Example 122], the IC50 was 2.8 nM.

In the case of `O=C(NCc1cccc(O)c1)c1ccc(C(=O)N[C@@H](CNC(=O)c2cccc(Cl)c2)C(=O)O)c(Cl)c1` [Example 123], the IC50 was determined as 0.8 nM.

Values taken from patent US20040006236A1, “Diaminopropionic acid derivatives” (priority 1999, published 2004).
